Data on 4 compounds can be found in US6518424B1, “Substituted pyrimidine compositions and methods of use” (Elan Pharmaceuticals, Inc., priority 1998, dated 2003).

Data set [1] has as its target T1, cPLA2 (Homo sapiens, UniProt P47712).
T1 construct: using cPLA2 enzyme from the cytosolic extraction of U937 cells; endogenous in cells; host or cells: human U937 cells, cytosolic extract (N2 cavitation, 100,000 g supernatant)
T1 sequence (P47712 1-749): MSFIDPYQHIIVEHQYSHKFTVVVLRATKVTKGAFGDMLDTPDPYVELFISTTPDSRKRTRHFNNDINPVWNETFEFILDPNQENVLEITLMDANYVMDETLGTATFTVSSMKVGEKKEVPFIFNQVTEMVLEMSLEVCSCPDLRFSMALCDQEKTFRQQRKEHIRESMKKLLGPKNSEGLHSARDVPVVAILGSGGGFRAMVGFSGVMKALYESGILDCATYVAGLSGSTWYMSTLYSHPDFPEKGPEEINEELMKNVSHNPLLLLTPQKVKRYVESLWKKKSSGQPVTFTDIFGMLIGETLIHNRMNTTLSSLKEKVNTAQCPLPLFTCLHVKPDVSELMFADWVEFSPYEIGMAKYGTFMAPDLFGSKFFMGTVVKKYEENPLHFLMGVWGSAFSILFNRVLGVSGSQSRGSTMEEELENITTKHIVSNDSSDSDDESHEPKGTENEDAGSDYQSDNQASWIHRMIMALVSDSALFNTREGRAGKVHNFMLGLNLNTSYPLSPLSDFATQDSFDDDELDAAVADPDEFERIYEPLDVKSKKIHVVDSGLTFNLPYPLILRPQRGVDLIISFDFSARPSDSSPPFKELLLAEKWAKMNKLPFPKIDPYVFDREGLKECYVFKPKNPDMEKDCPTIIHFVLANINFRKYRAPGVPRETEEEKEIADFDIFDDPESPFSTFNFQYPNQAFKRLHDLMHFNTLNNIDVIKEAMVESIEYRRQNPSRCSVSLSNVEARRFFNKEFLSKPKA
In words: cPLA2 enzyme assay using U937 cytosolic extract as enzyme source (release of [14C]-AA from phosphatidylcholine). It counts as biochemical. To be noted: asterisk on compound number in Table I. How it is done:
The PLA2 inhibitory properties of the compounds of the present invention were evaluated using the following assays. Inhibition of release of [^14C]-AA from phosphatidylcholine was measured according to standard methods. Human U937 cells were cultured in RPMI 1640 medium supplemented with 10% fetal bovine serum, penicillin, L-glutamine, and HEPES buffer. Cells were harvested and washed 3 times with extraction buffer (140 mM NaCl—5 mM KCl—2 mM EDTA—25 mM Tris pH 7.4) and resuspended at 1×10^8 cells/mL containing 100 μM leupeptin—50 μM pepstatin—1 mM PMSF. Cells were placed in a N2 cavitation bomb and put under pressure at 600 psi or maximum pressure for 20 minutes at 4° C. Cells were then released. The suspension was collected and centrifuged at 100,000 g for 60 minutes at 4° C. The resulting supernatant was collected and filtered through a 0.22 μm filter. Extract was then diluted to 50% glycerol and stored at −20° C.
For the preparation of substrate, 20 nmol of phosphatidylcholine-α-1-palmitoyl-2-arachidonyl-1-[^14C] and 10 nmol 1,2-dioleyl-glycerol were mixed together and dried under a N2 stream. A solution of 1 mL of 150 mM NaCl—50 mM HEPES pH 7.5 was added to the mixture. To reconstitute liposomes, the mixture was sonicated using a Branson 450 sonifier for 2 minutes at 50% duty cycle output level 3 on ice. After sonification, 40 μL of a 100 mg/mL BSA solution was added per mL.
The compounds were first dissolved in DMSO at 2 mM and serially diluted in DMSO by a factor of five for a total of 5 concentrations. These dilutions were further dissolved 60 fold in reaction buffer (150 mM NaCl—50 mM HEPES pH 7.5—1 mM CaCl2—1 mM 2-ME) containing approximately 5% of the U937 cytosolic extract to make up the preincubation mixture which was then incubated for 20 minutes at 37° C. Vehicle control using only DMSO with no compound was also made. To 30 μL of this Extract/compound mixture was added 10 μL of substrate. The 40 μL reaction mixture was incubated for 15 minutes at 37° C., and the reaction was stopped by adding 400 μL Dole's reagent [2-propanol/heptane/0.5 M H2SO4 (40:10:1) 10 μg/mL stearic acid]. This was followed by the addition of 240 μL heptane and 200 μL water. 280 μL of the top heptane layer was transferred to a tube containing […] silica gel with 200 μL heptane and mixed vigorously. Silica gel was then centrifuged at 1000 g for 1 minute. 400 μL of liquid was transferred to scintillation vial along with 4 mL of Beckman Ready Safe scintillation cocktail and mixed. Radioactivity was determined in a Beckman scintillation counter.
The compounds of the present invention were assayed for cPLA2 activity using cPLA2 enzyme from the cytosolic extraction of U937 cells (all procedures carried out on ice). […]

Bounds are passed on as bounds.

On to `CCCc1ccc(C(c2ccccc2)c2cc(O)nc(-c3ccccc3)n2)cc1` (centres unmarked) [Compound 18, 6-((4-n-Propyl)phenyl,phenyl)methyl-2-phenyl-pyrimidine-4-ol], for which the melting point (usually the temperature, or range, at which the solid turns liquid) fell in the range of 149 to 154 °C. In data set [1], the 50% inhibitory concentration (IC50) (in general, the point on the concentration scale where inhibition reaches its midpoint) was under 100 nM.
For the compound `CCCc1ccc(C(c2ccccc2)c2cc(O)nc(-c3ccccc3)n2)cc1` (centres unmarked) [Compound 19, 6-((4-Propyl)phenyl,phenyl)methyl-2-phenyl-pyrimidine-4-ol], in data set [1], the half-maximal inhibitory concentration (IC50) is under 100 nM.
Take `CC(C)Oc1ccc(C(c2ccccc2)c2cc(O)nc(-c3ccccc3)n2)cc1` (centres unmarked) [Compound 21, 6-((4-Isopropoxy)phenyl,phenyl)methyl-2-phenyl-pyrimidine-4-ol]: the IC50 in data set [1] is under 100 nM.
Still for that read-out and setting: as for `CC(C)Oc1ccc(C(c2ccccc2)c2cc(O)nc(-c3ccccc3)n2)cc1` (centres unmarked) [Compound 22, 6-((4-Isopropoxy)phenyl,phenyl)methyl-2-phenyl-pyrimidine-4-ol], the figure is under 100 nM.
